Measured values taken from patent US20250041356A1, “COMBINATION CANCER THERAPY” (Prokarium Limited, priority 2021, published 2025).

How the values were obtained:
[1] = test system: Primary human monocytes; assay: In vitro conditioning of primary human monocytes, TNFα release after PAMP/DAMP challenge (ELISA); type: cell-based
Description: Primary human monocytes were conditioned in vitro with Salmonella for 30 minutes prior to being washed with an antibiotic to remove all Salmonella and subsequently rested for 6 days in the presence of M-CSF. Following the 6 day rest period, the human monocytes were stimulated with PAMPs, DAMPs or a media only control, and the level of TNFα release measured via ELISA.

[2] = test system: 4T1-Luc2-1A4 tumour cells; details: monitored over 52 days; log-rank (Mantel-Cox) test
Description: Dilutions of the attenuated Salmonella Typhimurium strain (MD58) were made in PBS as required to achieve 1×10^9 CFU/100 μl for oral gavage.
6-7-week-old female BALB/c mice were pre-treated orally with 1×10^9 CFU Salmonella MD58 or PBS control. On day 0 mice were inoculated in mammary fat pad #4 with 5×10^5 4T1-Luc2-1A4 tumour cells. […] Primary tumour volumes were measured 3 times per week, lung tumour burden was measured by bioluminescent imaging (BLI) and survival was monitored until 52 days after tumour inoculation

Molecule | level of release of TNFα compared to cells treated with media (negative control) ([1]; challenge other than PAMPs (DAMPs)) | responsiveness to PAMPs and DAMPs, level of release of TNFα ([1]; conditioned 30 minutes, rested 6 days with M-CSF, then challenged) | survival compared to PBS+saline control [2]
β-glucan | no difference | only induces hyperresponsiveness in response to challenge with PAMPs | 
O=P1(N(CCCl)CCCl)NCCCO1 (stereo not drawn) [PBS+cyclophosphamide, cyclophosphamide] |  |  | significantly better survival
